Measurements: the supplement of paper PMC11061612

What was measured:
Assay in all cases: combination Emax (second highest fraction inhibited in the dose matrix, 72 h); higher = more inhibition; extreme values may be limits of the assay
[1] = system: SU-DHL-8 (B-Cell Non-Hodgkin's Lymphoma)
Method in brief: (§1)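 Cell lines in DMEM/F12 or RPMI with 10% FBS were plated in 1536-well plates, held 24 hours at 37°C, 5% CO2, then given two-drug dose matrices for 72 hours (DMSO typically 0.2%). Viability was read by CellTiter-Glo 2.0 luminescence and scaled as inhibition from 0 (vehicle wells) to 1 (blank wells). Combination Emax is the second-highest inhibition in the matrix; Bliss excess is observed combination effect minus expected EA + EB − EA·EB, EA and EB being single-agent effects.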

[2] = system: CAMA-1 (Breast Carcinoma)
Method in brief: as §1

TC-71 (Ewing's Sarcoma) = system: TC-71 (Ewing's Sarcoma)
Method in brief: as §1

[3] = system: TE-6 (Esophageal Squamous Cell Carcinoma)
Method in brief: as §1

[4] = system: MOLT-16 (T-Lymphoblastic Leukemia)
Method in brief: as §1

[5] = system: MKN28 (Gastric Carcinoma)
Method in brief: as §1

NCI-H2818 (Mesothelioma) = system: NCI-H2818 (Mesothelioma)
Method in brief: as §1

[6] = system: DiFi (Colorectal Carcinoma)
Method in brief: as §1

[7] = system: TOV-112D (Ovarian Carcinoma)
Method in brief: as §1

WM-115 (Melanoma) = system: WM-115 (Melanoma)
Method in brief: as §1

[8] = system: MFM-223 (Breast Carcinoma)
Method in brief: as §1

[9] = system: L-540 (Hodgkin's Lymphoma)
Method in brief: as §1

[10] = system: BFTC-905 (Bladder Carcinoma)
Method in brief: as §1

[11] = system: MS751 (Cervical Carcinoma)
Method in brief: as §1

[12] = system: HL-60 (Acute Myeloid Leukemia)
Method in brief: as §1

WIL2-NS (Non-Cancerous) = system: WIL2-NS (Non-Cancerous)
Method in brief: as §1

[13] = system: DND-41 (T-Lymphoblastic Leukemia)
Method in brief: as §1

[14] = system: KYSE-180 (Esophageal Squamous Cell Carcinoma)
Method in brief: as §1

[15] = system: SW837 (Colorectal Carcinoma)
Method in brief: as §1

[16] = system: EVSA-T (Breast Carcinoma)
Method in brief: as §1

Structure (SMILES) | combination Emax [1] | combination Emax [2] | combination Emax (TC-71 (Ewing's Sarcoma)) | combination Emax [3] | combination Emax [4] | combination Emax [5] | combination Emax (NCI-H2818 (Mesothelioma)) | combination Emax [6] | combination Emax [7] | combination Emax (WM-115 (Melanoma)) | combination Emax [8] | combination Emax [9] | combination Emax [10] | combination Emax [11] | combination Emax [12] | combination Emax (WIL2-NS (Non-Cancerous)) | combination Emax [13] | combination Emax [14] | combination Emax [15] | combination Emax [16]
CN(CCO)CC[C@H](CSc1ccccc1)Nc1ccc(S(=O)(=O)NC(=O)c2ccc(N3CCC([C@@H](O)c4ccccc4-c4ccc(Cl)cc4)CC3)cc2)cc1S(=O)(=O)C(F)(F)F [AZD4320] + CN(C)CCCOc1ccc(-c2ccc3ncc4c(c3c2)n(C2CCOCC2)c(=O)n4C)cn1 [AZD0156] (first compound max 1 µM, 7x7, partner max 1 µM) | 0.957 | 0.117 | 0.659 | 0.391 | 0.989 | 0.0805 | 0.268 | 0.608 | 0.222 | 0.363 | 0.199 | 0.224 | 0.15 | 0.101 | 0.898 | 0.22 | 1 | 0.112 | 0.191 | 0.163
CN(CCO)CC[C@H](CSc1ccccc1)Nc1ccc(S(=O)(=O)NC(=O)c2ccc(N3CCC([C@@H](O)c4ccccc4-c4ccc(Cl)cc4)CC3)cc2)cc1S(=O)(=O)C(F)(F)F [AZD4320] + C[C@@H]1COCCN1C2=NC(=NC(=C2)C3(CC3)[S@](=N)(=O)C)C4=C5C=CNC5=NC=C4 [AZD6738] (first compound max 1 µM, 7x7, partner max 10 µM) | 1 | 0.658 | 1 | 0.792 | 1 | 0.442 | 0.567 | 0.954 | 0.729 | 0.769 | 0.842 | 0.969 | 0.926 | 0.378 | 0.95 | 0.985 | 1 | 0.747 | 0.585 | 0.213
CN(CCO)CC[C@H](CSc1ccccc1)Nc1ccc(S(=O)(=O)NC(=O)c2ccc(N3CCC([C@@H](O)c4ccccc4-c4ccc(Cl)cc4)CC3)cc2)cc1S(=O)(=O)C(F)(F)F [AZD4320] + Cc1cc2ncnn2cc1Nc1ncc2c(n1)n(C1CCOCC1)c(=O)n2C [AZD7648] (first compound max 1 µM, 7x7, partner max 10 µM) | 0.942 | 0.229 | 0.593 | 0.524 | 1 | 0.153 | 0.364 | 0.784 | 0.318 | 0.489 | 0.223 | 0.502 | 0.117 | 0.146 | 0.923 | 0.335 | 1 | 0.0754 | 0.201 | 0.191
COc1nnc2ccc(N3CCC(c4ccc(OCCN5CCN(C)C(=O)[C@H]5C)cc4)CC3)nn12 [AZD5153] + C=CCn1c(=O)c2cnc(Nc3ccc(N4CCN(C)CC4)cc3)nc2n1-c1cccc(C(C)(C)O)n1 [AZD1775] (first compound max 1 µM, partner max 1 µM) | 0.994 | 0.453 | 0.935 | 0.731 | 1 | 0.525 | 0.327 | 0.727 | 0.815 | 0.338 | 0.538 | 0.925 | 0.63 | 0.935 | 0.932 | 0.878 | 0.941 | 0.742 | 0.715 | 0.942
COc1nnc2ccc(N3CCC(c4ccc(OCCN5CCN(C)C(=O)[C@H]5C)cc4)CC3)nn12 [AZD5153] + CC1(C)CCC(CN2CCN(c3ccc(C(=O)NS(=O)(=O)c4ccc(NCC5CCOCC5)c([N+](=O)[O-])c4)c(Oc4cnc5[nH]ccc5c4)c3)CC2)=C(c2ccc(Cl)cc2)C1 [Venetoclax] (first compound max 1 µM, 7x7, partner max 1 µM) | 0.663 | 0.456 | 0.657 | 0.572 | 1 | 0.446 | 0.268 | 0.586 | 0.588 | 0.365 | 0.305 | 0.755 | 0.633 | 0.702 | 0.99 | 0.807 | 0.835 | 0.293 | 0.551 | 0.938
COc1nnc2ccc(N3CCC(c4ccc(OCCN5CCN(C)C(=O)[C@H]5C)cc4)CC3)nn12 [AZD5153] + CCN(CCO)CCCOc1ccc2c(Nc3cc(CC(=O)Nc4cccc(F)c4)[nH]n3)ncnc2c1 [AZD2811] (first compound max 1 µM, 7x7, partner max 1 µM) | 0.982 | 0.497 | 0.884 | 0.632 | 1 | 0.43 | 0.292 | 0.667 | 0.718 | 0.37 | 0.415 | 0.716 | 0.71 | 0.789 | 0.984 | 0.811 | 0.667 | 0.397 | 0.57 | 0.938
